Here are results for three compounds from ChEMBL document CHEMBL1158678, “Two new mono-tetrahydrofuran ring acetogenins, annomuricin E and muricapentocin, from the leaves of Annona muricata” (J Nat Prod, 1998).

Data set [1] can be described thus: Toxicity against Artemia salina. It counts as organism-based. Particulars: in vivo, read-out: ED50 (the source's name).
The subject of a further data set is PC-3. The experiment in a line: Cytotoxicity against human PC3 cells after 7 days by MTT assay. It counts as functional. Conditions: PC-3, 168 h, read-out: ED50 (the source's name).
In a further data set the test system is MIA PaCa-2. Put plainly: Cytotoxicity against human MIAPaCa2 cells after 7 days by MTT assay. It counts as functional. Conditions: MIA PaCa-2, 168 h, read-out: ED50 (the source's name).
The test system of another data set is MCF7. The experiment in a line: Cytotoxicity against human MCF7 cells after 7 days by MTT assay. It counts as functional. Conditions: MCF7, 168 h, read-out: ED50 (the source's name). Background: Tetrazolium dyes change colour on reduction, which living cells bring about.
The next data set relates to HT-29. Put plainly: Cytotoxicity against human HT-29 cells after 7 days by MTT assay. It counts as functional. Conditions: HT-29, 168 h, read-out: ED50 (the source's name).
Another data set deals with A549. Put plainly: Cytotoxicity against human A549 cells after 7 days by MTT assay. Type of data set: functional. Particulars: A549, 168 h, read-out: ED50 (the source's name).
Another data set has as its system A498. Put plainly: Cytotoxicity against human A498 cells after 7 days by MTT assay. Type of data set: functional. Conditions: A498, 168 h, read-out: ED50 (the source's name).

Converted amounts (≈) assume the structure as drawn.

Turning to `CCCCCCCCCCCC[C@@H](O)[C@H]1CC[C@H]([C@H](O)CCC[C@@H](O)[C@@H](O)CCCCC[C@@H](O)CC2=C[C@H](C)OC2=O)O1` [ANNOMURICIN E], the LC50 in data set [1] is 11.8 µg/mL (≈ 19.3 µM). Further, the EC50 with PC-3 came to 0.146 µg/mL (≈ 0.238 µM); with MIA PaCa-2, 0.0242 µg/mL (≈ 0.0395 µM); in the data set with MCF7, 1.45 µg/mL (≈ 2.37 µM); in the data set with HT-29 it was 0.0668 µg/mL (≈ 0.109 µM); in the data set with A549, 0.112 µg/mL (≈ 0.183 µM); with A498 it was 1.41 µg/mL (≈ 2.3 µM).

Take `COc1cccc2c1C(=O)c1c(O)c3c(c(O)c1C2=O)C[C@@](O)(C(=O)CO)C[C@@H]3O[C@H]1C[C@H](N)[C@H](O)[C@H](C)O1` [DOXORUBICIN]: the EC50 with PC-3 worked out at 0.0355 µg/mL (≈ 0.0653 µM); in the data set on MIA PaCa-2 it was 0.00456 µg/mL (≈ 0.00839 µM); with MCF7, 0.124 µg/mL (≈ 0.228 µM); with HT-29, 0.0381 µg/mL (≈ 0.0701 µM); in the data set on A549, 0.00294 µg/mL (≈ 0.00541 µM); in the data set with A498 it was 0.0158 µg/mL (≈ 0.0291 µM).

For `CCCCCCCCCCCC[C@@H](O)[C@H]1CC[C@H]([C@H](O)CCC(O)CCCC(O)CCC[C@@H](O)CC2=C[C@H](C)OC2=O)O1` (stereo not given in full) [MURICAPENTOCIN], the LC50 in data set [1] was found to be 1.86 µg/mL (≈ 3.03 µM). In addition, the EC50 came to 0.45 µg/mL (≈ 0.734 µM) with PC-3; 0.0503 µg/mL (≈ 0.0821 µM) in the data set with MIA PaCa-2; 1.9 µg/mL (≈ 3.1 µM) in the data set on MCF7; 0.071 µg/mL (≈ 0.116 µM) in the data set with HT-29; 0.193 µg/mL (≈ 0.315 µM) with A549; 1.72 µg/mL (≈ 2.81 µM) with A498.
